# In the supplement of paper PMC11061612:
# Experiments:
# Experiment in all cases: Bliss excess, mean over the matrix (fraction); higher = more synergy
# [1] = tested on: COLO-680N (Esophageal Squamous Cell Carcinoma)
# In short: (§1)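 Cell lines grown in DMEM/F12 or RPMI with 10% FBS were plated in 1536-well plates and held 24 hours at 37°C, 5% CO2 before 72 hours of exposure to two-drug dose matrices, with DMSO typically at 0.2%. CellTiter-Glo 2.0 luminescence gave viability, which was converted to inhibition. Vehicle wells were set to 0 and blank wells to 1. Combination Emax is the second-highest inhibition in the matrix, and Bliss excess is the observed combination effect minus the expected EA + EB − EA·EB, where EA and EB are the single-agent effects.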
# [2] = tested on: FADU (Head and Neck Carcinoma)
# In short: as §1
# GB-1 (Glioblastoma) = tested on: GB-1 (Glioblastoma)
# In short: as §1
# [3] = tested on: L-1236 (Hodgkin's Lymphoma)
# In short: as §1
# [4] = tested on: LB996-RCC (Kidney Carcinoma)
# In short: as §1
# [5] = tested on: LK-2 (Squamous Cell Lung Carcinoma)
# In short: as §1
# LN-229 (Glioblastoma) = tested on: LN-229 (Glioblastoma)
# In short: as §1
# [6] = tested on: MFE-280 (Endometrial Carcinoma)
# In short: as §1
# [7] = tested on: NCI-H446 (Small Cell Lung Carcinoma)
# In short: as §1
# [8] = tested on: OAW-42 (Ovarian Carcinoma)
# In short: as §1
# [9] = tested on: OPM-2 (Plasma Cell Myeloma)
# In short: as §1
# [10] = tested on: OVMIU (Ovarian Carcinoma)
# In short: as §1
# [11] = tested on: PSN1 (Pancreatic Carcinoma)
# In short: as §1
# [12] = tested on: RERF-GC-1B (Gastric Carcinoma)
# In short: as §1
# SF268 (Low Grade Glioma) = tested on: SF268 (Low Grade Glioma)
# In short: as §1
# [13] = tested on: SHP-77 (Small Cell Lung Carcinoma)
# In short: as §1
# [14] = tested on: SK-PN-DW (Other Solid Carcinomas)
# In short: as §1
# [15] = tested on: TE-8 (Esophageal Squamous Cell Carcinoma)
# In short: as §1
# [16] = tested on: VAL (B-Cell Non-Hodgkin's Lymphoma)
# In short: as §1
# WM278 (Melanoma) = tested on: WM278 (Melanoma)
# In short: as §1
SMILES,Bliss excess [1],Bliss excess [2],Bliss excess (GB-1 (Glioblastoma)),Bliss excess [3],Bliss excess [4],Bliss excess [5],Bliss excess (LN-229 (Glioblastoma)),Bliss excess [6],Bliss excess [7],Bliss excess [8],Bliss excess [9],Bliss excess [10],Bliss excess [11],Bliss excess [12],Bliss excess (SF268 (Low Grade Glioma)),Bliss excess [13],Bliss excess [14],Bliss excess [15],Bliss excess [16],Bliss excess (WM278 (Melanoma))
"CN(CCO)CC[C@H](CSc1ccccc1)Nc1ccc(S(=O)(=O)NC(=O)c2ccc(N3CCC([C@@H](O)c4ccccc4-c4ccc(Cl)cc4)CC3)cc2)cc1S(=O)(=O)C(F)(F)F [AZD4320] + C1CN(CCC1(C(=O)N[C@@H](CCO)C2=CC=C(C=C2)Cl)N)C3=NC=NC4=C3C=CN4 [Capivasertib] (first compound max 1 µM, 7x7, partner max 3 µM)",-0.0411,-0.0268,-0.0274,-0.0476,0.0014,-0.0077,-0.0443,0.0092,0.0316,-0.0274,-0.0088,-0.0691,-0.0264,0.0036,-0.0502,0.0185,-0.0588,-0.0074,0.0595,-0.0378
"CN(CCO)CC[C@H](CSc1ccccc1)Nc1ccc(S(=O)(=O)NC(=O)c2ccc(N3CCC([C@@H](O)c4ccccc4-c4ccc(Cl)cc4)CC3)cc2)cc1S(=O)(=O)C(F)(F)F [AZD4320] + C=CCn1c(=O)c2cnc(Nc3ccc(N4CCN(C)CC4)cc3)nc2n1-c1cccc(C(C)(C)O)n1 [AZD1775] (first compound max 1 µM, partner max 1 µM)",0.0065,0.0213,-0.0642,0.0006,0.0405,0.0105,0.0438,0.0823,0.0462,0.0074,0.0457,0.0324,-0.0112,0.0515,0.0042,0.0877,0.0052,0.0378,-0.0211,0.0846
"CN(CCO)CC[C@H](CSc1ccccc1)Nc1ccc(S(=O)(=O)NC(=O)c2ccc(N3CCC([C@@H](O)c4ccccc4-c4ccc(Cl)cc4)CC3)cc2)cc1S(=O)(=O)C(F)(F)F [AZD4320] + CCN(CCO)CCCOc1ccc2c(Nc3cc(CC(=O)Nc4cccc(F)c4)[nH]n3)ncnc2c1 [AZD2811] (first compound max 1 µM, 7x7, partner max 1 µM)",-0.0373,0.0014,-0.0189,-0.0263,0.0389,0.0358,-0.0074,0.0821,-0.0505,-0.0359,0.128,-0.0627,-0.0029,-0.0034,0.0843,-0.0019,0.0024,0.0845,-0.0063,0.0469
"CN(CCO)CC[C@H](CSc1ccccc1)Nc1ccc(S(=O)(=O)NC(=O)c2ccc(N3CCC([C@@H](O)c4ccccc4-c4ccc(Cl)cc4)CC3)cc2)cc1S(=O)(=O)C(F)(F)F [AZD4320] + CN(C)CCCOc1ccc(-c2ccc3ncc4c(c3c2)n(C2CCOCC2)c(=O)n4C)cn1 [AZD0156] (first compound max 1 µM, 7x7, partner max 1 µM)",-0.028,-0.01,-0.0272,-0.0001,-0.0541,0.0312,-0.0218,0.0113,-0.0002,-0.0088,0.0221,-0.0427,-0.0308,0.0211,-0.0012,0.0223,-0.0302,-0.0277,0.0174,-0.0148
"CN(CCO)CC[C@H](CSc1ccccc1)Nc1ccc(S(=O)(=O)NC(=O)c2ccc(N3CCC([C@@H](O)c4ccccc4-c4ccc(Cl)cc4)CC3)cc2)cc1S(=O)(=O)C(F)(F)F [AZD4320] + C[C@@H]1COCCN1C2=NC(=NC(=C2)C3(CC3)[S@](=N)(=O)C)C4=C5C=CNC5=NC=C4 [AZD6738] (first compound max 1 µM, 7x7, partner max 10 µM)",-0.0302,-0.0165,-0.0314,0.0169,-0.0179,-0.0267,0.0358,0.0099,0.0178,-0.0315,-0.0534,0.0069,-0.0798,0.072,0.023,-0.0032,-0.0551,-0.0357,0.0095,-0.0404
"CN(CCO)CC[C@H](CSc1ccccc1)Nc1ccc(S(=O)(=O)NC(=O)c2ccc(N3CCC([C@@H](O)c4ccccc4-c4ccc(Cl)cc4)CC3)cc2)cc1S(=O)(=O)C(F)(F)F [AZD4320] + C[C@@H](Nc1cc(F)cc(F)c1)c1cc(C(=O)N(C)C)cc2c(=O)cc(N3CCOCC3)oc12 [AZD8186] (first compound max 1 µM, 7x7, partner max 3 µM)",0.0088,0.041,-0.0289,0.0082,0.0394,-0.0056,0.0166,0.0097,0.0281,0.0688,0.0851,-0.0637,-0.0651,0.0112,0.014,0.0216,-0.0087,0.008,0.0137,0.035
"CN(CCO)CC[C@H](CSc1ccccc1)Nc1ccc(S(=O)(=O)NC(=O)c2ccc(N3CCC([C@@H](O)c4ccccc4-c4ccc(Cl)cc4)CC3)cc2)cc1S(=O)(=O)C(F)(F)F [AZD4320] + Cc1cc2ncnn2cc1Nc1ncc2c(n1)n(C1CCOCC1)c(=O)n2C [AZD7648] (first compound max 1 µM, 7x7, partner max 10 µM)",-0.0437,-0.016,-0.0225,-0.0299,-0.0232,-0.0075,-0.0393,-0.0471,0.0292,-0.0118,0.0418,-0.0652,-0.0361,0.0231,-0.0371,-0.0012,-0.0411,-0.0357,0.0316,-0.0277
"CN(CCO)CC[C@H](CSc1ccccc1)Nc1ccc(S(=O)(=O)NC(=O)c2ccc(N3CCC([C@@H](O)c4ccccc4-c4ccc(Cl)cc4)CC3)cc2)cc1S(=O)(=O)C(F)(F)F [AZD4320] + Cn1cnc2c(F)c(Nc3ccc(Br)cc3Cl)c(C(=O)NOCCO)cc21 [Selumetinib] (first compound max 1 µM, 7x7, partner max 3 µM)",0.0047,0.183,0.0313,0.0288,-0.0445,-0.0134,0.0585,-0.0211,-0.0039,-0.0115,0.0683,-0.0595,0.0043,0.022,0.0069,0.0429,-0.0198,-0.0628,0.0113,0.0582
"COc1nnc2ccc(N3CCC(c4ccc(OCCN5CCN(C)C(=O)[C@H]5C)cc4)CC3)nn12 [AZD5153] + C=CCn1c(=O)c2cnc(Nc3ccc(N4CCN(C)CC4)cc3)nc2n1-c1cccc(C(C)(C)O)n1 [AZD1775] (first compound max 1 µM, partner max 1 µM)",-0.0746,-0.0273,0.056,-0.0138,-0.052,0.0029,-0.039,-0.0779,-0.0553,-0.0338,-0.0366,-0.0409,-0.0385,-0.114,0.0037,0.0194,-0.0722,-0.0426,-0.126,-0.0364
"COc1nnc2ccc(N3CCC(c4ccc(OCCN5CCN(C)C(=O)[C@H]5C)cc4)CC3)nn12 [AZD5153] + CC1(C)CCC(CN2CCN(c3ccc(C(=O)NS(=O)(=O)c4ccc(NCC5CCOCC5)c([N+](=O)[O-])c4)c(Oc4cnc5[nH]ccc5c4)c3)CC2)=C(c2ccc(Cl)cc2)C1 [Venetoclax] (first compound max 1 µM, 7x7, partner max 1 µM)",-0.0372,-0.0492,-0.062,0.0177,-0.0178,-0.0015,-0.0496,-0.0138,0.0507,-0.0201,0.0082,-0.0254,-0.0649,-0.0442,-0.128,0.0049,-0.0998,-0.0838,-0.0493,-0.0188
"COc1nnc2ccc(N3CCC(c4ccc(OCCN5CCN(C)C(=O)[C@H]5C)cc4)CC3)nn12 [AZD5153] + CCN(CCO)CCCOc1ccc2c(Nc3cc(CC(=O)Nc4cccc(F)c4)[nH]n3)ncnc2c1 [AZD2811] (first compound max 1 µM, 7x7, partner max 1 µM)",-0.0833,-0.0529,-0.0787,-0.027,-0.106,-0.282,0.0112,-0.0343,-0.0481,-0.0491,0.0194,-0.0733,0.0384,-0.096,-0.0592,-0.0325,-0.0677,-0.0152,-0.0945,-0.0654
"COc1nnc2ccc(N3CCC(c4ccc(OCCN5CCN(C)C(=O)[C@H]5C)cc4)CC3)nn12 [AZD5153] + C[C@@H]1COCCN1C2=NC(=NC(=C2)C3(CC3)[S@](=N)(=O)C)C4=C5C=CNC5=NC=C4 [AZD6738] (first compound max 1 µM, 7x7, partner max 10 µM)",0.0046,0.0155,0.0446,-0.0093,-0.0142,0.0491,0.0224,-0.0103,0.0153,0.0752,-0.0245,-0.0208,0.0171,0.0429,0.0311,0.0591,-0.0638,0.0176,-0.111,0.0507
"Cc1c2c(nn1C)CSCc1cc(n(C)n1)CSc1cc(c3ccccc3c1)OCCCc1c(C(=O)O)n(C)c3c-2c(Cl)ccc13 [AZD5991] + Cc1cc2ncnn2cc1Nc1ncc2c(n1)n(C1CCOCC1)c(=O)n2C [AZD7648] (first compound max 1 µM, 7x7, partner max 10 µM)",-0.0177,-0.0003,-0.0429,0.0299,-0.0662,0.0019,-0.0525,,0.0148,-0.0419,-0.0357,-0.091,-0.0628,-0.0085,0.0006,-0.0359,-0.0404,-0.069,-0.0356,-0.0428
